Measurements from patent US20150329558A1, “FUSED HETEROCYCLIC COMPOUNDS AS ION CHANNEL MODULATORS” (Gilead Sciences, Inc., priority 2011, published 2015).
Like-named read-outs stand apart in the source and are kept apart here.

Tests used:
[1] = molecular target: wild-type human cardiac sodium channel, hNav1.5 (peak INa) (Homo sapiens, UniProt Q14524); experiment: Peak INa screening assay (tonic and use-dependent block); format: cell-based
Procedure: The late sodium current (Late INa) and peak sodium current (Peak INa) assays are performed on an automated electrophysiology platform, QPatch 16× (Sophion Bioscience, Copenhagen, Denmark), which uses the whole cell patch clamp technique to measure currents through the cell membrane of up to 16 cells at a time. The assay uses an HEK293 (human embryonic kidney) cell line heterologously expressing the wild-type human cardiac sodium channel, hNav1.5, purchased from Millipore (Billerica, Mass.). No beta subunits were coexpressed with the Na channel alpha subunit. Cells are maintained with standard tissue culture procedures and stable channel expression is maintained with 400 μg/mL Geneticin in the culture medium. […] Experiments are carried out at 23-25° C. For both the Late INa and Peak INa assays, series resistance compensation is set to 100% and series resistance and whole-cell compensation are performed automatically. Currents are digitized at 25 kHz and low-pass filtered at 12 kHz and 10 kHz for the late and peak INa assays, respectively. Currents through open sodium channels are automatically recorded and stored in the Sophion Bioscience Oracle database (Sophion Bioscience, Copehagen, Denmark). Analysis is performed using QPatch Assay and database software and data are compiled in Excel. Compound stocks are routinely made by the Gilead Sample Bank in plastic vials to 10 mM in dimethyl sulfoxide (DMSO). In some cases, when compounds are not soluble in DMSO, they are made in 100% ethanol. Stocks are sonicated as necessary. […] The intracellular solution used to perfuse the inside of the cells for both the Late INa and Peak INa assays contains: 120 mM CsF, 20 mM CsCl, 5 mM EGTA, 5 mM HEPES and pH adjusted to 7.4 with CsOH. Compounds are diluted in extracellular solution to 1 μM in glass vials and then transferred to glass well plates before robotic addition to the cells. […] Compounds were also evaluated for their effect in several other assays, including their effect on Peak INa. Good separation between the concentrations of test compound to reduce late and peak INa is beneficial to enable separation of the desired effect to reduce late INa-induced electrical and mechanical dysfunction from the undesired effect to reduce peak INa, which can lead to slowing or block of conduction of electrical excitation in the heart. It is contemplated that the compounds of Formula I avoid significant block of peak INa. Since the peak INa in the cells used herein can be very large, introducing artifacts in the recording, the concentration of Na^+ in the bath can be reduced to 20 mM and a nonpermeant cation added to compensate for the Na^+ that was removed to maintain the osmolarity and ionic strength of the solution (see solution details below). Analysis of peak INa generally requires correction for rundown before determining the % block of peak current by the tested compound. […] A low stimulation frequency of 0.1 Hz was used to determine the effect of the test compound when the channel spent most of the time in the resting (closed) state and provides information about Tonic Block (TB). A higher stimulation frequency (3 Hz) was used to measure block of the channel when it spent more time in the activated and inactivated states and provided a measure of Use-Dependent Block (UDB). Use-dependent block refers to the accumulation of block with increased frequency of channel activation. Block of cardiac peak INa by compounds of this invention is increased with an increase in the frequency of stimulation from 0.1 to 1-5 Hz (frequencies encountered either in the normal heart or during tachycardia). It is therefore expected that reduction of peak INa by compounds of this invention will be greater at high heart rates, such as those during tachyarrhythmias, than at normal heart rates. […]

[2] = molecular target: wild-type human cardiac sodium channel, hNav1.5 (late INa) (Homo sapiens, UniProt Q14524); experiment: Late INa screening assay (QPatch whole cell patch clamp); format: cell-based
Chain of wild-type human cardiac sodium channel, hNav1.5 (late INa) (Q14524 whole entry): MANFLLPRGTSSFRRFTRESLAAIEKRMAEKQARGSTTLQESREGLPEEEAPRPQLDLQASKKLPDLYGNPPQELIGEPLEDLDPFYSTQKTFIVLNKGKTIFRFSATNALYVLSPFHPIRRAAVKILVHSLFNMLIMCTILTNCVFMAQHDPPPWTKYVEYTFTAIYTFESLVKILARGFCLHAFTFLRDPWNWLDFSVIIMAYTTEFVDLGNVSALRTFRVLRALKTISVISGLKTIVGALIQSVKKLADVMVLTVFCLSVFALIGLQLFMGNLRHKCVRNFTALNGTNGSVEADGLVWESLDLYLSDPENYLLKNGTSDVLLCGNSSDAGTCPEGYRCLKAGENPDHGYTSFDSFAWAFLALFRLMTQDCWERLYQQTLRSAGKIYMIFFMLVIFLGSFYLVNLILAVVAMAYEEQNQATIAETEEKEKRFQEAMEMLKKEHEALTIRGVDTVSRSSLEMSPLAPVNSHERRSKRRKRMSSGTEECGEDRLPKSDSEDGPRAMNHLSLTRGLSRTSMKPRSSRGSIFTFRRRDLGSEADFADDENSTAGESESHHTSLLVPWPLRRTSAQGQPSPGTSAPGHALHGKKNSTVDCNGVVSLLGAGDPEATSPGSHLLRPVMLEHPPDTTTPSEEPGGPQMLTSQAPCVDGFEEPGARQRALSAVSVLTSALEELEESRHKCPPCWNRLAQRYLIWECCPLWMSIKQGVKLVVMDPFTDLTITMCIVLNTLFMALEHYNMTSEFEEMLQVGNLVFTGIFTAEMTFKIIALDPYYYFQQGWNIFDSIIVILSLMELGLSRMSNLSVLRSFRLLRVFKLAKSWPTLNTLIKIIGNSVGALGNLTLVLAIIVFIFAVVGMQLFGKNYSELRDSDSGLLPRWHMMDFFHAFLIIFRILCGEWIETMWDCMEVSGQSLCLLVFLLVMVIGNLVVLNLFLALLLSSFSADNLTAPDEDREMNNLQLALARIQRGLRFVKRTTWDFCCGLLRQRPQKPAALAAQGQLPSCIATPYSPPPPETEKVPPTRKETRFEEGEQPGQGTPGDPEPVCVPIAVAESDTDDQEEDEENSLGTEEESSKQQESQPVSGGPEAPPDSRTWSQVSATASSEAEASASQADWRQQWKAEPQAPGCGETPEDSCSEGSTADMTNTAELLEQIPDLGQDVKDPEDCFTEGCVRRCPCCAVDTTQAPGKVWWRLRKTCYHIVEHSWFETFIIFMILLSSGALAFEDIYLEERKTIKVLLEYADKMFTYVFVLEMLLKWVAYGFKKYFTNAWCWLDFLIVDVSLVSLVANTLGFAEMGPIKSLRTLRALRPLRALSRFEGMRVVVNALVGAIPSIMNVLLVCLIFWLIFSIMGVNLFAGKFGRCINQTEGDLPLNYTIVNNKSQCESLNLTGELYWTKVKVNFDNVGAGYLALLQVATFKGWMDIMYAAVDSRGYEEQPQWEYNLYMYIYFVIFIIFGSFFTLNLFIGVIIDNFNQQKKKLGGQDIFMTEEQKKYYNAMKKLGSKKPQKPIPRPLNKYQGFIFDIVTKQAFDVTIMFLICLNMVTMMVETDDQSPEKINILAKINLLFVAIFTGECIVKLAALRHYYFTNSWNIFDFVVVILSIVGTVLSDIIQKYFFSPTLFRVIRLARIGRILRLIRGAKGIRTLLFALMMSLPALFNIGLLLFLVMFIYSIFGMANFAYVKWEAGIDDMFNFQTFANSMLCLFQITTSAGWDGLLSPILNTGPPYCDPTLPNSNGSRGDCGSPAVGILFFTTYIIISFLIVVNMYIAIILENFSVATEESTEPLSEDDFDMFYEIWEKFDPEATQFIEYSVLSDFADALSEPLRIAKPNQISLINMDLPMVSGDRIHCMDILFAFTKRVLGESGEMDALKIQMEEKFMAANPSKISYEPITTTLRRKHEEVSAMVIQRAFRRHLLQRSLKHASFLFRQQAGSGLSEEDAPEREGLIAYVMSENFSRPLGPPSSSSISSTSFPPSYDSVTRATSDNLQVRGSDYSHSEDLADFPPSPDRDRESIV
Outline: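 HEK293 cells stably expressing hNav1.5 alpha subunit without beta subunits, QPatch automated whole-cell clamp at 23-25° C, CsF-based internal solution pH 7.4. Late INa induced by 10 μM tefluthrin; 250 ms steps to −20 mV from −120 mV at 0.1 Hz, compounds at 1 μM. Percent block of mean current 225–250 ms into the step.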

[3] = Microsomal stability assay, human; format: in vitro ADME; details: metabolic stability, human liver microsomes 0.5 mg/mL, substrate 3 uM
Outline: (§1)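 Liver microsomes at 0.5 mg/mL protein in 100 mM KPO4 buffer, incubated with 3 uM compound and NADPH-regenerating system, run in duplicate. Samples taken at 2, 12, 25, 45 and 65 min and quenched in MeOH/ACN/water before analysis.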

[4] = Microsomal stability assay, rat; format: in vitro ADME; details: metabolic stability, rat liver microsomes 0.5 mg/mL, substrate 3 uM
Outline: as §1

[5] = Microsomal stability assay, dog; format: in vitro ADME; details: metabolic stability, dog liver microsomes 0.5 mg/mL, substrate 3 uM
Outline: as §1

[6] = tonic block of peak INa, 0.1 Hz, 1 μM, read-out: Peak TB 1 μM
[7] = use-dependent block of peak INa, 3 Hz, 1 μM, read-out: Peak UDB 1 μM
[8] = percent block of late INa, compound at 1 μM, 10 μM Tefluthrin, HEK293 hNav1.5, read-out: Late INa 1 μM
[9] = % inhibition at 1 μM, tonic block, read-out: NAv1.5*-PEAK-TB-
[10] = % inhibition at 1 μM, use-dependent block 3 Hz, read-out: NAv1.5*-PEAK-UDB-3 HZ-
[11] = % inhibition at 1 μM, read-out: NAv1.5*-LATE-

Chain of wild-type human cardiac sodium channel, hNav1.5 (peak INa) (Q14524 whole entry): as above

| SMILES | inhibition at 1 µM [1, 6] | inhibition at 1 µM [1, 7] | inhibition at 1 µM [2, 8] | MS Human THalf [3] | MS Rat THalf [4] | MS Dog THalf [5] | inhibition at 1 µM [1, 9] | inhibition at 1 µM [1, 10] | inhibition at 1 µM [2, 11] | inhibition at 1 µM ([1]; read-out: Peak TB 1 μM) | inhibition at 1 µM ([1]; read-out: Peak UDB 1 μM) |
| --- | --- | --- | --- | --- | --- | --- | --- | --- | --- | --- | --- |
| Cc1coc(Cn2nnc3ccc(-c4ccc(OC(F)(F)F)cc4)cc3c2=O)n1 [II-97, 3-((4-methyloxazol-2-yl)methyl)-6-(4-(trifluoromethoxy)phenyl)benzo[d][1,2,3]triazin-4(3H)-one] | 12% | 7% | 54% | 206 min | 24 min | 63 min |  |  |  |  |  |
| O=C1c2cc(-c3ccc(OC(F)(F)F)cc3)ccc2SCN1Cc1ccccn1 [Compound X-1, 3-(pyridin-2-ylmethyl)-6-(4-(trifluoromethoxy)phenyl)-2H-benzo[e][1,3]thiazin-4(3H)-one] | 14% | 22% | 47% | 74 min | 58 min | 107 min |  |  |  |  |  |
| O=C(c1ncccc1F)N1CCc2ccc(-c3ccc(C(F)(F)F)cc3)cc2C1 [IX-25, (3-fluoropyridin-2-yl)(7-(4-(trifluoromethyl)phenyl)-3,4-dihydroisoquinolin-2(1H)-yl)methanone] | 28% | 33% | 57% | 320 min | 170 min | 97 min | 28% | 32% | 57% |  |  |
| O=C1c2cc(-c3ccc(C(F)(F)F)cc3)ccc2SCN1Cc1ccccn1 [Compound X-3, 3-(pyridin-2-ylmethyl)-6-(4-(trifluoromethyl)phenyl)-2H-benzo[e][1,3]thiazin-4(3H)-one] | 31% | 35% | 67% | 36 min | 45 min | 137 min |  |  |  |  |  |
| O=C1c2cc(-c3ccc(C(F)(F)F)cc3)ccc2SCN1Cc1ccccc1Cl [Compound X-5, 3-(2-chlorobenzyl)-6-(4-(trifluoromethyl)phenyl)-2H-benzo[e][1,3]thiazin-4(3H)-one] | 12% | 35% | 57% | 48 min | 57 min | 55 min |  |  |  |  |  |
| O=C(c1ccccn1)N1CCc2ccc(-c3ccc(C(F)(F)F)cc3)cc2C1 [IX-6, pyridin-2-yl(7-(4-(trifluoromethyl)phenyl)-3,4-dihydroisoquinolin-2(1H)-yl)methanone] | 28% | 37% | 62% | 54 min | 272 min | 313 min |  |  |  |  |  |
| COc1ccnc(Cn2ncc3ccc(-c4ccc(OC(F)(F)F)cc4)cc3c2=O)n1 [III-30, 2-((4-methoxypyrimidin-2-yl)methyl)-7-(4-(trifluoromethoxy)phenyl)phthalazin-1 (2H)-one] | 11% | 12% | 56% | 205 min | 70 min | 167 min |  |  |  |  |  |
| O=c1c2cc(-c3ccc(OC(F)(F)F)cc3)ccc2nnn1CC1(COc2ncccn2)CC1 [II-80, 3-((1-((pyrimidin-2-yloxy)methyl)cyclopropyl)methyl)-6-(4-(trifluoromethoxy)phenyl)benzo[d][1,2,3]triazin-4(3H)-one] |  |  | 42% | 49 min | 34 min | 85 min |  |  |  | 8% | 7% |
| O=c1c2cc(-c3ccc(OC(F)(F)F)cc3)ccc2cnn1Cc1nccc(OCC2CC2)n1 [III-27, 2((4-(cyclopropylmethoxy)pyrimidin-2-yl)methyl)-7-(4-(trifluoromethoxy)phenyl)phthalazin-1 (2H)-one] | 15% | 15% | 52% | 268 min | 43 min | 83 min |  |  |  |  |  |
| Cc1nccn1CC1(Cn2nnc3ccc(-c4ccc(OC(F)(F)F)cc4)cc3c2=O)CC1 [II-34, 3-((1-((2-methyl-1H-imidazol-1-yl)methyl)cyclopropyl)methyl)-6-(4-(trifluoromethoxy)phenyl)benzo[d][1,2,3]triazin-4(3H)-one] | 27% | 34% | 48% | 2 min | 2 min | 2 min |  |  |  |  |  |
| COC(=O)C1(Cn2nnc3ccc(-c4ccc(OC(F)(F)F)cc4)cc3c2=O)CC1 [II-55, methyl 1-((4-oxo-6-(4-(trifluoromethoxy)phenyl)benzo[d][1,2,3]triazin-3 (4H)-yl)methyl)cyclopropanecarboxylate] | 7% | 3% | 58% | 14 min | 2 min | 2 min | 7% | 3% | 58% |  |  |
| CC(Cn1ncc2ccc(-c3ccc(OC(F)(F)F)cc3)cc2c1=O)n1cccn1 (stereo not drawn) [III-38, 2-(2-(1H-pyrazol-1-yl)propyl)-7-(4-(trifluoromethoxy)phenyl)phthalazin-1 (2H)-one] | 9% | 11% | 52% | 54 min | 24 min | 31 min |  |  |  |  |  |
| O=C1c2cc(-c3ccc(OC(F)(F)F)cc3)ccc2SCN1Cc1ncccc1F [Compound X-9, 3-((3-fluoropyridin-2-yl)methyl)-6-(4-(trifluoromethoxy)phenyl)-2H-benzo[e][1,3]thiazin-4(3H)-one] | 39% | 31% | 67% | 70 min | 47 min | 75 min |  |  |  |  |  |
| O=c1c2cc(-c3ccc(OC(F)(F)F)cc3)ccc2cnn1CCOc1ncc(Cl)cn1 [III-37, 2-(2-(5-chloropyrimidin-2-yloxy)ethyl)-7-(4-(trifluoromethoxy)phenyl)phthalazin-1 (2H)-one] | 7% | 4% | 50% | 157 min | 96 min | 37 min |  |  |  |  |  |
| O=C1c2cc(-c3ccc(C(F)(F)F)cc3)ccc2SCN1Cc1ncccn1 [Compound X-4, 3-(pyrimidin-2-ylmethyl)-6-(4-(trifluoromethyl)phenyl)-2H-benzo[e][1,3]thiazin-4(3H)-one] | 27% | 25% | 52% | 103 min | 122 min | 126 min |  |  |  |  |  |
